Measured values: patent US8716012B2, “Alpha thymosin peptides as vaccine enhancers” (priority 2009, dated 2014)

What was measured:
[1] = cited from earlier work
[2] = Safety and tolerability observations in ferrets; assay type: in vivo; settings: TA1 0.285 or 0.570 mg/kg/dose s.c.
Experimental: The vaccine (either Agrippal influPozzi seasonal vaccine, non-adjuvanted, or Fluad, MF-59 adjuvanted) was administered via intramuscular injection to the right leg at a full human dose of 0.5 mL. TA1 (0.285 or 0.570 mg/kg/dose) was administered by the subcutaneous route at a dose volume that, using a scaling factor for ferret/human dosing, corresponding to approximate human doses of […]. Animals were observed twice daily for mortality, general health, and both local and systemic signs of toxicity and illness as well as behavior under the responsibility of a professional veterinarian. Body weights were recorded prior to dosing only.

[3] = CD-1 mice; TA1 0.3, 0.6 or 1.2 mg/kg/dose i.p. with Fluvirin
[4] = doses as high as 800 times the recommended human dose; cited from earlier work
[5] = more than 3,000 patients (adults, elderly, children); cited from earlier work

For “Ac-SDAAVDTSSEITTKDLKEKKEVVEEAEN-OH [TA1]”, the Peak plasma levels ([1]; after injection of 3.2 mg of TA1 (about 40 μg/kg)) is given as “approximately 100 ng/ml”, the “half-life of TA1 in the circulation” value ([1]; in vivo) is given as “about 2 hours” and the plasma half-life ([1]; subcutaneously injected TA1) is given as “about two”. For the same substance, the cage-side observations [2] was “no cage-side observations were noted”, the safety and tolerability [2] was “safe and well-tolerated” and the “clinical/cageside observations or body weight effects” value [3] was “no test article-related clinical/cageside observations or body weight effects”. For the same substance, the survival [3] was “All animals survived until scheduled termination”, the “adverse clinical signs in animal studies” value [4] was “no evidence of adverse clinical signs” and the “drug-related side effects in clinical studies” value [5] was “virtually no drug-related side effects”.
